According to patent US12440471B2, “Compositions and methods for the treatment of bronchopulmonary dysplasia (BPD) and BPD-associated pulmonary hypertension” (AyuVis Research, Inc., priority 2021, dated 2025):

Assays:
[1] = test system: hyperoxia-exposed BPD mouse model; test: BPD mouse model: immunofluorescence (Ki67, PCNA, vWF) and TUNEL staining of lung; format: in vivo
Source text: AVR-48 restored lung morphology and improved alveolar cellular physiology. After assessment of the safety profile of the AVR-48, and confirmation of the ideal dose to be used, the inventors then performed studies to evaluate the therapeutic effect on the lung in the experimental BPD mouse model, as previously described (Bhandari, Choo-Wing et al. 2008, Leary, Das et al. 2019, Das, Acharya et al 2020, Das, Curstedt et al 2020). BPD is characterized by enlarged simplified alveoli with large air sacs, thickened septum, and thin alveolar epithelium (FIG. 2A) accompanied by overall decrease in alveolar cell proliferation, decreased/dysregulated angiogenesis and increased cell death. All these features were restored after injection of 2 doses of AVR-48, IP (10 mg/kg) on days P2 and P4. […] The total inflammatory cells present in the BALF (FIG. 3A) and the total protein content (FIG. 3B)—both increase in BPD, was decreased after treatment with AVR-48. […] To assess cell specificity, the inventors focused on Type I and Type II alveolar epithelial cells (AECs), as they are most relevant to the process of alveolarization, as described in the manuscript. The inventors utilized the receptor for advanced glycation end-products (RAGE) as the preferred marker for Type I AECs and surfactant protein (SP)-C for the Type II AECs. Due to Ki67 and SP-C being raised in the same species, we used proliferating cell nuclear antigen (PCNA) expression—a well-established marker of cell proliferation because cells remain a longer time in the G1/S phase when proliferating—as a preferred marker for proliferating cells. […] There were few cells which were double positive for PCNA as well as RAGE in the RA and RA+AVR-48 groups (FIG. 4C).
Histology, immunohistochemistry and immunofluorescence. Both the RA control and BPD mice were anesthetized (using an overdose of a cocktail of xylazine-ketamine) and lung and heart tissues were harvested after perfusion and fixed overnight in 4% paraformaldehyde. Fixed tissues were then washed in fresh PBS, dehydrated using 70% ethanol, cleared, and embedded in paraffin to be sectioned and stained with hematoxylin and eosin (H&E) for lung morphometry or immunohistochemistry/immunofluorescence as previously described (Leary, Das et al. 2019, Das, Achaiya et al. 2020, Das, Curstedt et al. 2020). Immunofluorescence staining was done for Ki67 (Abcam, 1:10) and Von Wilebrand Factor (vWF-DAKO, 1:100) on lung paraffin sections following the protocol as described earlier (Leary, Das et al. 2019) while TUNEL staining was done following the manufacturer's instructions (Roche).
For quantification of cell proliferation and cell death, the entire lung section was divided into 3 areas, and the total number of Ki67+ve and TUNEL+ve cells nuclei were counted manually which was normalized with the total number of nuclei to give a percentage of positive cells. For vWF quantification, total number of closed vessels were counted per high power field area in one lung section. A minimum of 3 areas were chosen, and 3-7 animals were used for staining and counting.

[2] = PK in preterm lambs after IV dosing; format: in vivo, lamb
Protocol: A total 9 lambs were used for this study. One dose of Curosurf was given intratracheally to the PT lamb just after birth. Randomized doses of compound AVR-48 (8) (0, 0.1, 0.3, 1.0 and 3.0 mg/kg) were administered intravenously every 12 hr after the initial dose that will be given at 6 hr after delivery to n=2-4 lambs via slow intravenous injection. The beginning treatment at 6 hr post-delivery is selected to represent the human case where neonatologists attempt to allow an infant to breath without mechanical ventilation, if possible, and then begin invasive respiratory support as necessary. Whole blood was drawn from PT lambs at the time of delivery (“pre-dose”), immediately after dosing (IAD), at 15, 30, 45, and 60 min, and at 2, 4, 8, 12, 24, 48, 72, and 96 hr after the initial dose. Plasma extractions and bioanalysis of compound AVR-48 (8) were performed using a qualified bioanalysis method already developed by us. The PK parameters were calculated following both non-Compartmental Pharmacokinetic Modeling and population Pharmacokinetic Modeling as described by Roberts et al previously (Roberts, Stockmann et al. 2016). Blood was collected every 15 min for the first 90 min of postnatal life, followed by every 3 hours for 12 hours and then spaced at 1.5 d, 2.5 d, 3.5 d, 6.5 d, and 9.5 d for analysis of cytokines (Visconti, Senthamaraikannan et al. 2018) and VEGF levels (Albertine, Dahl et al. 2010). The blood samples also were analyzed for hematology and liver enzymes. After 6-7 d of mechanical ventilation, the lambs will be weaned from mechanical ventillation and weaned to non-invasive support for 3 d to ascertain longer-term outcome (Dahl, Bowen et al. 2018). Terminally, the PT lambs were euthanized after 10 days and their heart/lungs and brain were removed. Ex vivo BAL of the right cranial lobe (it has its own bronchus, pulmonary artery and vein) was done for similar analyses. Tracheal aspirates were collected according to the protocol for cytokines, BAL protein, ICAM-1 and VEGF. The spleen was collected to analyze immune cell population, using FACS.

[3] = test system: human cord blood monocytes (CBMC); test: Cytokines in human cord blood monocytes (CBMC); format: cell-based
Source text: IL-12p40, is a marker for the innate immune response to infection and is down regulated in CBMC.

[4] = sheep, plasma, single IV dose 3.0 mg/kg/dose saline solution, n=3 preterm lambs

For `CC(=O)N[C@@H]1C(Oc2ccc([N+](=O)[O-])cc2)OC(CO)C(O)C1O` (some centres unmarked) [AVR-48], the “cell proliferation (Ki67 immunostaining)” value ([1]; 10 mg/kg IP P2 and P4, vs BPD) was “revival in cell proliferation”, the “RAGE+ve cells co-localization with PCNA (Type I AECs)” value ([1]; BPD or BPD+AVR-48 groups) was “did not co-localize with PCNA” and the “cells co-localizing SP-C and PCNA (proliferating Type II AECs)” value ([1]; BPD vs RA, RA+AVR-48, BPD+AVR-48) was “less in the BPD group as compared to RA, RA+AVR-48 and BPD+AVR-48 groups”. The “blood vessels (vWF immunostaining)” value ([1]; vs BPD group) was “showed improvement”, the “cell death (TUNEL staining, cleaved caspase 3 immunoblotting)” value ([1]; vs BPD group) was “decrease in cell death” and the drug accumulation ([2]; repeat IV dosing for 7 days) was “no drug accumulation”. For the same compound, the Cmax [2, 4] was 12.2 ± 5.6 µM, the half-life [2, 4] was 33.6 min and the plasma concentration profile ([2]; single IV dose 3.0 mg/kg/dose) was “linear decline in drug concentration”. The IL-10 increase ([3]; AVR-48 alone, 0.1-10 μM) was roughly 2.5 fold, the IL-1β ([3]; LPS+AVR-48, 10 μM) was “decreased” and the IL-10 ([3]; LPS+AVR-48, 10 μM) was “decreased”. For the same compound, the IL-12p40 response ([3]; compound alone (10 μM) or with LPS, compared with only LPS) was “higher IL-12p40 response than only LPS” and the TNF-α levels ([3]; human CBMC, LPS) was “decreased”.
